Results reported in ChEMBL document CHEMBL3817755, “Design, synthesis and biological evaluation of indazolepyrimidine based derivatives as anticancer agents with anti-angiogenic and antiproliferative activities” (Medchemcomm, 2016).

Legend:
[1] = Growth inhibition of human HL-60(TB) cells at 10 uM after 48 hrs by SRB assay; assay type: functional; settings: HL-60, 48 h, read-out: GI
[2] = tested on: K562; test: Growth inhibition of human K562 cells at 10 uM after 48 hrs by SRB assay; assay type: functional; settings: K562, 48 h, read-out: GI
[3] = tested on: EKVX; test: Growth inhibition of human EKVX cells at 10 uM after 48 hrs by SRB assay; assay type: functional; settings: read-out: GI
[4] = Growth inhibition of human HOP92 cells at 10 uM after 48 hrs by SRB assay; assay type: functional; settings: HOP-92, 48 h, read-out: GI
[5] = tested on: NCI-H23; test: Growth inhibition of human NCI-H23 cells at 10 uM after 48 hrs by SRB assay; assay type: functional; settings: NCI-H23, 48 h, read-out: GI
[6] = tested on: NCI-H460; test: Growth inhibition of human NCI-H460 cells at 10 uM after 48 hrs by SRB assay; assay type: functional; settings: NCI-H460, 48 h, read-out: GI
[7] = tested on: NCI-H522; test: Growth inhibition of human NCI-H522 cells at 10 uM after 48 hrs by SRB assay; assay type: functional; settings: NCI-H522, 48 h, read-out: GI
[8] = Growth inhibition of human SW620 cells at 10 uM after 48 hrs by SRB assay; assay type: functional; settings: SW-620, 48 h, read-out: GI
[9] = Growth inhibition of human SF268 cells at 10 uM after 48 hrs by SRB assay; assay type: functional; settings: SF-268, 48 h, read-out: GI
[10] = Growth inhibition of human SNB19 cells at 10 uM after 48 hrs by SRB assay; assay type: functional; settings: SNB-19, 48 h, read-out: GI
[11] = tested on: U-251; test: Growth inhibition of human U251 cells at 10 uM after 48 hrs by SRB assay; assay type: functional; settings: U-251, 48 h, read-out: GI
[12] = tested on: MDA-MB-435; test: Growth inhibition of human MDA-MB-435 cells at 10 uM after 48 hrs by SRB assay; assay type: functional; settings: MDA-MB-435, 48 h, read-out: GI
[13] = tested on: SK-MEL-2; test: Growth inhibition of human SK-MEL-2 cells at 10 uM after 48 hrs by SRB assay; assay type: functional; settings: SK-MEL-2, 48 h, read-out: GI
[14] = Growth inhibition of human OVCAR3 cells at 10 uM after 48 hrs by SRB assay; assay type: functional; settings: OVCAR-3, 48 h, read-out: GI
[15] = Growth inhibition of human OVCAR4 cells at 10 uM after 48 hrs by SRB assay; assay type: functional; settings: OVCAR-4, 48 h, read-out: GI
[16] = tested on: T47D; test: Growth inhibition of human T47D cells at 10 uM after 48 hrs by SRB assay; assay type: functional; settings: read-out: GI
[17] = tested on: MDA-MB-468; test: Growth inhibition of human MDA-MB-468 cells at 10 uM after 48 hrs by SRB assay; assay type: functional; settings: MDA-MB-468, 48 h, read-out: GI
[18] = Growth inhibition of human MOLT4 cells after 48 hrs by SRB assay; assay type: functional; settings: MOLT-4, 48 h
[19] = tested on: SR; test: Growth inhibition of human SR cells after 48 hrs by SRB assay; assay type: functional; settings: for CC50: read-out: LC50 (the source's name)
[20] = tested on: NCI-H226; test: Growth inhibition of human NCI-H226 cells after 48 hrs by SRB assay; assay type: functional; settings: NCI-H226, 48 h; for CC50: read-out: LC50 (the source's name)
[21] = tested on: NCI-H23; test: Growth inhibition of human NCI-H23 cells after 48 hrs by SRB assay; assay type: functional; settings: NCI-H23, 48 h; for CC50: read-out: LC50 (the source's name)
[22] = tested on: NCI-H522; test: Growth inhibition of human NCI-H522 cells after 48 hrs by SRB assay; assay type: functional; settings: NCI-H522, 48 h
[23] = Growth inhibition of human SF268 cells after 48 hrs by SRB assay; assay type: functional; settings: SF-268, 48 h; for CC50: read-out: LC50 (the source's name)
[24] = tested on: U-251; test: Growth inhibition of human U251 cells after 48 hrs by SRB assay; assay type: functional; settings: U-251, 48 h; for CC50: read-out: LC50 (the source's name)
[25] = Growth inhibition of human LOXIMVI cells after 48 hrs by SRB assay; assay type: functional; settings: LOX IMVI
[26] = tested on: M14; test: Growth inhibition of human M14 cells after 48 hrs by SRB assay; assay type: functional; settings: M14, 48 h; for CC50: read-out: LC50 (the source's name)
[27] = tested on: MDA-MB-435; test: Growth inhibition of human MDA-MB-435 cells after 48 hrs by SRB assay; assay type: functional; settings: MDA-MB-435, 48 h
[28] = tested on: SK-MEL-2; test: Growth inhibition of human SK-MEL-2 cells after 48 hrs by SRB assay; assay type: functional; settings: SK-MEL-2, 48 h
[29] = tested on: SK-MEL-5; test: Growth inhibition of human SK-MEL-5 cells after 48 hrs by SRB assay; assay type: functional; settings: SK-MEL-5, 48 h; for CC50: read-out: LC50 (the source's name)
[30] = Growth inhibition of human OVCAR3 cells after 48 hrs by SRB assay; assay type: functional; settings: OVCAR-3, 48 h; for CC50: read-out: LC50 (the source's name)
[31] = Growth inhibition of human OVCAR4 cells after 48 hrs by SRB assay; assay type: functional; settings: OVCAR-4, 48 h; for CC50: read-out: LC50 (the source's name)
[32] = Growth inhibition of human OVCAR8 cells after 48 hrs by SRB assay; assay type: functional; settings: OVCAR-8, 48 h; for CC50: read-out: LC50 (the source's name)
[33] = tested on: MCF7; test: Growth inhibition of human MCF7 cells after 48 hrs by SRB assay; assay type: functional; settings: MCF7, 48 h; for CC50: read-out: LC50 (the source's name)
[34] = Growth inhibition of human BT549 cells after 48 hrs by SRB assay; assay type: functional; settings: BT-549, 48 h; for CC50: read-out: LC50 (the source's name)
[35] = molecular target: Hepatocyte growth factor receptor (Homo sapiens) (UniProt P08581); test: Inhibition of c-Met (unknown origin) at 10 uM
Sequence of Hepatocyte growth factor receptor (Homo sapiens) (P08581 whole entry): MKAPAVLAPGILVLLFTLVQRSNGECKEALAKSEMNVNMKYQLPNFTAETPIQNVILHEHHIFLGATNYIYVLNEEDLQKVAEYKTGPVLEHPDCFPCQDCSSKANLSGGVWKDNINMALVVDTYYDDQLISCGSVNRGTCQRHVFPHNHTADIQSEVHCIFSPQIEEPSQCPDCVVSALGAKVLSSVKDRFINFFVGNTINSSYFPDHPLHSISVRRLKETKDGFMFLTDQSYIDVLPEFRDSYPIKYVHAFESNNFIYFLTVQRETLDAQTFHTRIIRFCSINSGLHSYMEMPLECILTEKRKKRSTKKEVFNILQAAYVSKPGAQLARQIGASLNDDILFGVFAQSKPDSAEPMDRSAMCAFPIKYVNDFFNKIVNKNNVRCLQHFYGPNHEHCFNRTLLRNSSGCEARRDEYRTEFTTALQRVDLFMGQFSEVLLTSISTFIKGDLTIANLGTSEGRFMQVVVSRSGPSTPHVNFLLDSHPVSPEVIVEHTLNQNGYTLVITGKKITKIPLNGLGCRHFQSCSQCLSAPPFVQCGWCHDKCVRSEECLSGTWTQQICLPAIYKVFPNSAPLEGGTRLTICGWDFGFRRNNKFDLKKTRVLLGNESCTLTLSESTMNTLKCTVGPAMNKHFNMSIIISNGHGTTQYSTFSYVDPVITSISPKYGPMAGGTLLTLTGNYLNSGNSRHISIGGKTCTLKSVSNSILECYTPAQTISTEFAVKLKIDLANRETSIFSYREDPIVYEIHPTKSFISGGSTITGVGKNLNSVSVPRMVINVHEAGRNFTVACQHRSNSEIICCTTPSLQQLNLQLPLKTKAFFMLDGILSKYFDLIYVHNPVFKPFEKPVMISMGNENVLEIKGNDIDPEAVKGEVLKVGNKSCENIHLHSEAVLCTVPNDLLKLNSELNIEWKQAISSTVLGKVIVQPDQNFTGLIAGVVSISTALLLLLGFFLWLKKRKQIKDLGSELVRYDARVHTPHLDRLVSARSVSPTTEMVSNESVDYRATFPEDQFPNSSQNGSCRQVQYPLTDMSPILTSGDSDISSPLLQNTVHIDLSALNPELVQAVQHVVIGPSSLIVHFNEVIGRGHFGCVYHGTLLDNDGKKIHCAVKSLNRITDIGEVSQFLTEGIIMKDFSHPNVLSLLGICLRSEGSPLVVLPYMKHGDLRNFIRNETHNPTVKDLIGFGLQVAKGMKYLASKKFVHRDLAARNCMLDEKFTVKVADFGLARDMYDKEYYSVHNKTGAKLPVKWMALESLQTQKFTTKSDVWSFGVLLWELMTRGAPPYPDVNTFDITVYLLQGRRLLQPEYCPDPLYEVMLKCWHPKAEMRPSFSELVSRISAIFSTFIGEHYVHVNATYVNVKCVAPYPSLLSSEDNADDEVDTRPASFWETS

[36] = molecular target: Aurora kinase A (Homo sapiens) (UniProt O14965); test: Inhibition of Aurora A (unknown origin) at 10 uM
Sequence of Aurora kinase A (Homo sapiens) (O14965 whole entry): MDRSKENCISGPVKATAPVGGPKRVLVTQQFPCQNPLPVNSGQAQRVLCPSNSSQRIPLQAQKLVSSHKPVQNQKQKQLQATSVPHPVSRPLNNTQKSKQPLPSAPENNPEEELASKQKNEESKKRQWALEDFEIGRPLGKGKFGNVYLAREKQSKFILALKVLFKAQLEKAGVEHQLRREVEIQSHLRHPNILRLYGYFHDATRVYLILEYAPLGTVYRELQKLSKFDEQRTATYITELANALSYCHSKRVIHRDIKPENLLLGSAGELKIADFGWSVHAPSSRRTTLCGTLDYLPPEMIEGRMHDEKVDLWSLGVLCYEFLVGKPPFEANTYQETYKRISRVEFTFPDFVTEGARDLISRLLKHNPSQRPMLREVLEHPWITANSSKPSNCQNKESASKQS

[37] = molecular target: Cyclin-dependent kinase 2 (Homo sapiens) (UniProt P24941); test: Inhibition of CDK-2 (unknown origin) at 10 uM
[38] = molecular target: Mast/stem cell growth factor receptor Kit (Homo sapiens) (UniProt P10721); test: Inhibition of c-Kit (unknown origin) at 10 uM
Sequence of Mast/stem cell growth factor receptor Kit (Homo sapiens) (P10721 whole entry): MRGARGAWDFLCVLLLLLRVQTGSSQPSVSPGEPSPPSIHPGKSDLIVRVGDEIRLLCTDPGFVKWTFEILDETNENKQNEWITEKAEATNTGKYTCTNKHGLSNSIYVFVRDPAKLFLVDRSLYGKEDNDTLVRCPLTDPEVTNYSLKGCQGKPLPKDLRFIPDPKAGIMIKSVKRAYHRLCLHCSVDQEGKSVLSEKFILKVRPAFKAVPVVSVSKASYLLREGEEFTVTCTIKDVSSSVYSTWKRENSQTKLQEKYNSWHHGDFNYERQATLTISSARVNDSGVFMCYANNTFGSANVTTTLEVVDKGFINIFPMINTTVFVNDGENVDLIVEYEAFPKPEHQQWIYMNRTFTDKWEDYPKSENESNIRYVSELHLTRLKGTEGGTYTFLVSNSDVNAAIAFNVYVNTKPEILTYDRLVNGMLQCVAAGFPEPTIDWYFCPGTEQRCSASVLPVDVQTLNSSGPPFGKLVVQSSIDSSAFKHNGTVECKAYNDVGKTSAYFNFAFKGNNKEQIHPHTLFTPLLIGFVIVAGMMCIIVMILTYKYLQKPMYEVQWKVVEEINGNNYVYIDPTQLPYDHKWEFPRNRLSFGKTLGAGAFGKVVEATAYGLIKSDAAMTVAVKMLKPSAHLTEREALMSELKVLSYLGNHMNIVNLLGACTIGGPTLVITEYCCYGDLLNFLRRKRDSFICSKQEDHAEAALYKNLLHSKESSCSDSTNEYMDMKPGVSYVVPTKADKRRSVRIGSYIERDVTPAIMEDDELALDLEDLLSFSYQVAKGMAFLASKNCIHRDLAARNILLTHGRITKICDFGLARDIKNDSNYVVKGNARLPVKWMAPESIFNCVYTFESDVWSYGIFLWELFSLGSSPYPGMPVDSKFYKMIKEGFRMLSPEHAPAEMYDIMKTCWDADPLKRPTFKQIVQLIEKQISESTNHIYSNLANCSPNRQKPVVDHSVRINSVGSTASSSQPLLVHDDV

COc1ccc(Nc2nccc(Nc3ccc4[nH]ncc4c3)n2)cc1
inhibition of growth at 10 µM [1]: 40% | inhibition of growth at 10 µM [2]: 95% | inhibition of growth at 10 µM [3]: 49% | inhibition of growth at 10 µM [4]: 101% | inhibition of growth at 10 µM [5]: 60% | inhibition of growth at 10 µM [6]: 75% | inhibition of growth at 10 µM [7]: 81% | inhibition of growth at 10 µM [8]: 75% | inhibition of growth at 10 µM [9]: 53% | inhibition of growth at 10 µM [10]: 40% | inhibition of growth at 10 µM [11]: 64% | inhibition of growth at 10 µM [12]: 65% | inhibition of growth at 10 µM [13]: 70% | inhibition of growth at 10 µM [14]: 51% | inhibition of growth at 10 µM [15]: 67% | inhibition of growth at 10 µM [16]: 104% | inhibition of growth at 10 µM [17]: 56% | GI50 [18]: 1.55 µM | LC50 [18]: > 100 µM | TGI [18]: 4.67 µM | GI50 [19]: 1.75 µM | TGI [19]: 4.67 µM | CC50 [19]: > 100 µM | GI50 [20]: 2.3 µM | TGI [20]: 5.77 µM | CC50 [20]: > 100 µM | GI50 [21]: 2.35 µM | TGI [21]: 6.27 µM | CC50 [21]: 87.3 µM | GI50 [22]: 1.86 µM | LC50 [22]: 15.6 µM | TGI [22]: 4.77 µM | GI50 [23]: 4.2 µM | TGI [23]: 28.6 µM | CC50 [23]: > 100 µM | GI50 [24]: 3.61 µM | TGI [24]: 13.6 µM | CC50 [24]: 36.9 µM | GI50 [25]: 1.92 µM | LC50 [25]: 7.8 µM | TGI [25]: 3.87 µM | GI50 [26]: 2.39 µM | TGI [26]: 6.15 µM | CC50 [26]: 21.2 µM | GI50 [27]: 2.1 µM | LC50 [27]: 20.1 µM | TGI [27]: 5.7 µM | GI50 [28]: 2.4 µM | LC50 [28]: 29.8 µM | TGI [28]: 6.39 µM | GI50 [29]: 2.01 µM | TGI [29]: 4.75 µM | CC50 [29]: 13.1 µM | GI50 [30]: 3.15 µM | TGI [30]: 10.6 µM | CC50 [30]: 44 µM | GI50 [31]: 2.99 µM | TGI [31]: 11.8 µM | CC50 [31]: 55.6 µM | GI50 [32]: 2.24 µM | TGI [32]: 5.39 µM | CC50 [32]: > 100 µM | GI50 [33]: 2.05 µM | TGI [33]: 5.36 µM | CC50 [33]: > 100 µM | GI50 [34]: 3.22 µM | TGI [34]: 12.1 µM | CC50 [34]: 34.8 µM | inhibition [35]: 42% | inhibition [36]: 91% | inhibition [37]: 71% | inhibition [38]: 85%

COc1cccc(Nc2nccc(Nc3ccc4[nH]ncc4c3)n2)c1
inhibition of growth at 10 µM [1]: 162% | inhibition of growth at 10 µM [2]: 110% | inhibition of growth at 10 µM [3]: 66% | inhibition of growth at 10 µM [4]: 111% | inhibition of growth at 10 µM [5]: 129% | inhibition of growth at 10 µM [6]: 168% | inhibition of growth at 10 µM [7]: 168% | inhibition of growth at 10 µM [8]: 169% | inhibition of growth at 10 µM [9]: 74% | inhibition of growth at 10 µM [10]: 76% | inhibition of growth at 10 µM [11]: 194% | inhibition of growth at 10 µM [12]: 178% | inhibition of growth at 10 µM [13]: 137% | inhibition of growth at 10 µM [14]: 161% | inhibition of growth at 10 µM [15]: 160% | inhibition of growth at 10 µM [16]: 152% | inhibition of growth at 10 µM [17]: 145% | GI50 [18]: 0.52 µM | LC50 [18]: 28.4 µM | TGI [18]: 2.83 µM | GI50 [19]: 1.34 µM | TGI [19]: 4.93 µM | CC50 [19]: 20.6 µM | GI50 [20]: 1.82 µM | TGI [20]: 4.46 µM | CC50 [20]: 14.8 µM | GI50 [21]: 1.69 µM | TGI [21]: 3.83 µM | CC50 [21]: 8.7 µM | GI50 [22]: 1.48 µM | LC50 [22]: 5.54 µM | TGI [22]: 2.86 µM | GI50 [23]: 1.86 µM | TGI [23]: 5.89 µM | CC50 [23]: 22.5 µM | GI50 [24]: 1.58 µM | TGI [24]: 3.18 µM | CC50 [24]: 6.39 µM | GI50 [25]: 1.44 µM | LC50 [25]: 7.07 µM | TGI [25]: 3.19 µM | GI50 [26]: 1.35 µM | TGI [26]: 2.81 µM | CC50 [26]: 5.83 µM | GI50 [27]: 1.49 µM | LC50 [27]: 6.78 µM | TGI [27]: 3.18 µM | GI50 [28]: 1.62 µM | LC50 [28]: 6.59 µM | TGI [28]: 3.27 µM | GI50 [29]: 1.22 µM | TGI [29]: 2.47 µM | CC50 [29]: 5.01 µM | GI50 [30]: 1.58 µM | TGI [30]: 4.07 µM | CC50 [30]: 11.1 µM | GI50 [31]: 1.46 µM | TGI [31]: 4.03 µM | CC50 [31]: 12.5 µM | GI50 [32]: 1.67 µM | TGI [32]: 4.39 µM | CC50 [32]: 13.4 µM | GI50 [33]: 1.26 µM | TGI [33]: 3.11 µM | CC50 [33]: 7.53 µM | GI50 [34]: 1.67 µM | TGI [34]: 3.71 µM | CC50 [34]: 8.23 µM | inhibition [35]: 54% | inhibition [36]: 76% | inhibition [37]: 76% | inhibition [38]: 80%
